Consider 21 compounds from patent US20070249670A1, “Glycogen Phosphorylase Inhibitor Compounds and Pharmaceutical Compositions Thereof” (SMITHKLINE BEECHAM CORPORATION, priority 2004, published 2007).

In this assay the target is T1, human liver glycogen phosphorylase a (HLGPa) (Homo sapiens, UniProt P06737).
T1 construct: creating a full-length cDNA fused at the 5′ end to codons for methionine-glycine-alanine-histidine; 6xHis tag (leader Met-Gly-Ala-His6-Gly-Gly) (N); made in house; host or cells: E. coli (bacterial expression plasmid pTXK1007LTev)
T1 sequence (P06737 2-847 limits assumed): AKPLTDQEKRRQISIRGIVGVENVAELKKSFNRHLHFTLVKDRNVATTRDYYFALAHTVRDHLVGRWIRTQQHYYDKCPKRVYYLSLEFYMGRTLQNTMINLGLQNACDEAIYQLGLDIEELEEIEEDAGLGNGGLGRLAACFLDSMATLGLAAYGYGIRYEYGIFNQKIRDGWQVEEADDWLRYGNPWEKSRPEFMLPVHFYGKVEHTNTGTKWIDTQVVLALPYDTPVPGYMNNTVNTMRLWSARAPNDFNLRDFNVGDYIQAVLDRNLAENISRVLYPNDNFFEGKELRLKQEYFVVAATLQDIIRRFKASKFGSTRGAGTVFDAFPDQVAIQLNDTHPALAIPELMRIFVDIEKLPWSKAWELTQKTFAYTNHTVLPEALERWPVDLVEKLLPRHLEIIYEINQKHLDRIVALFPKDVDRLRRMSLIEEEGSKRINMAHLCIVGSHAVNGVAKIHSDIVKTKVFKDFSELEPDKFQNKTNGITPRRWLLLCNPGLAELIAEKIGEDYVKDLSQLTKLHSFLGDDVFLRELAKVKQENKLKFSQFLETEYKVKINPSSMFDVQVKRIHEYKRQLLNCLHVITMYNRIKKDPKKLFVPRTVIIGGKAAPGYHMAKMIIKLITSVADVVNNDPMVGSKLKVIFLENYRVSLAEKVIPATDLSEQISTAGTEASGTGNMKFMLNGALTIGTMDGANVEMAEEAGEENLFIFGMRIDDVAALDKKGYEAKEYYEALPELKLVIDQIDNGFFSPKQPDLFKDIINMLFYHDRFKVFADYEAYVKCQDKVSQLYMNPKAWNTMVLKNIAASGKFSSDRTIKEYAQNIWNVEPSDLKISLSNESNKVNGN
Briefly: Human liver glycogen phosphorylase a enzymatic activity assay (coupled, fluorescent resorufin readout, with and without 10 mM glucose). Type of assay: biochemical. The conditions noted are these: human liver glycogen phosphorylase a enzymatic activity assay.

For `O=C(Nc1cc2ccccc2cc1C(=O)Nc1cscc1C(=O)O)Nc1c(Cl)cccc1Cl` [Example 497, 4-({[3-({[(2,6-dichlorophenyl)amino]carbonyl}amino)-2-naphthalenyl]carbonyl}amino)-3-thiophenecarboxylic acid], the IC50 is 17700 nM. `Cc1cc(C)c(NC(=O)Nc2cc3ccccc3cc2C(=O)Nc2cc(C(=O)O)cc(C(=O)O)c2)c(C)c1` [Example 498, 5-({[3-({[(2,4,6-trimethylphenyl)amino]carbonyl}amino)-2-naphthalenyl]carbonyl}amino)-1,3-benzenedicarboxylic acid] came in with an IC50 of 110 nM. The result for `Cc1cccc(C)c1NC(=O)Nc1cc2ccccc2cc1C(=O)NC(C)CC(=O)O` (stereo not drawn) [Example 500, 3-({[3-({[(2,6-dimethylphenyl)amino]carbonyl}amino)-2-naphthalenyl]carbonyl}amino)butanoic acid] reads 2140 nM; that for `Cc1cc(C)c(NC(=O)Nc2cc3ccccc3cc2C(=O)N[C@H](C(=O)O)c2ccc(O)cc2)c(C)c1` [Example 501, (2S)-(4-hydroxyphenyl)({[3-({[(2,4,6-trimethylphenyl)amino]carbonyl}amino)-2-naphthalenyl]carbonyl}amino)ethanoic acid], 12 nM. Turning to `Cc1cc(C)c(NC(=O)Nc2cc3ccccc3cc2C(=O)N[C@H](C(=O)O)C2CCC(O)CC2)c(C)c1` (stereo partly drawn) [Example 502, (2S)-(4-hydroxycyclohexyl)({[3-({[(2,4,6-trimethylphenyl)amino]carbonyl}amino)-2-naphthalenyl]carbonyl}amino)ethanoic acid], half-maximal inhibition (IC50) required 13 nM.

As to `COC(=O)[C@H](CC(=O)N(C)C)NC(=O)c1ccc(-c2ccc(OC)cc2)cc1NC(=O)Nc1c(C)cc(C)cc1C` [Example 503, methyl N^4,N^4-dimethyl-N^2-{[4′-(methyloxy)-3-({[(2,4,6-trimethylphenyl)amino]carbonyl}amino)-4-biphenylyl]carbonyl}-L-asparaginate], the IC50 came to 11100 nM. On to `COc1ccc(-c2ccc(C(=O)N[C@@H](CC(=O)N(C)C)C(=O)O)c(NC(=O)Nc3c(C)cc(C)cc3C)c2)cc1` [Example 504, N^4,N^4-dimethyl-N^2-{[4′-(methyloxy)-3-({[(2,4,6-trimethylphenyl)amino]carbonyl}amino)-4-biphenylyl]carbonyl}-L-asparagine], for which the IC50 was found to be 32 nM. `Cc1cc(CC2CC2)cc(C)c1NC(=O)Nc1cc(-c2cccc(F)c2)ccc1C(=O)N[C@H](C(=O)O)[C@@H](C)OC(C)(C)C` [Example 505, N-({3-[({[4-(cyclopropylmethyl)-2,6-dimethylphenyl]amino}carbonyl)amino]-3′-fluoro-4-biphenylyl}carbonyl)-O-(1,1-dimethylethyl)-L-threonine] showed an IC50 of 3 nM. In turn, `CCOC(=O)C[C@H](NC(=O)c1ccc(-c2cccc(F)c2)cc1NC(=O)Nc1c(C)cc(C)cc1C)C(=O)O` [Example 506, (2S)-4-(ethyloxy)-2-({[3′-fluoro-3-({[(2,4,6-trimethylphenyl)amino]carbonyl}amino)-4-biphenylyl]carbonyl}amino)-4-oxobutanoic acid] had an IC50 of 1090 nM. `Cc1cc(C)c(NC(=O)Nc2cc(-c3cccc(F)c3)ccc2C(=O)N[C@@H](CC(=O)O)C(=O)O)c(C)c1` [Example 507, N-{[3′-fluoro-3-({[(2,4,6-trimethylphenyl)amino]carbonyl}amino)-4-biphenylyl]carbonyl}-L-aspartic acid] gave an IC50 of 53 nM. The compound `Cc1cc(C)c(NC(=O)Nc2cc3ccccc3cc2C(=O)N[C@@H](COCc2ccccc2)C(=O)O)c(C)c1` [Example 509, O-(Phenylmethyl)-N-{[3-({[(2,4,6-trimethylphenyl)amino]carbonyl}amino)-2-naphthalenyl]carbonyl}-L-serine] came in with an IC50 of 28 nM.

The compound `Cc1cc(C)c(NC(=O)Nc2cc(-c3ccc(F)c(F)c3)ccc2C(=O)N[C@@H](COCc2ccccc2)C(=O)O)c(C)c1` [Example 510, N-{[3′,4′-Difluoro-3-({[(2,4,6-trimethylphenyl)amino]carbonyl}amino)-4-biphenylyl]carbonyl}-O-(phenylmethyl)-L-serine] had an IC50 of 42 nM. The compound `O=C(Nc1ccc(-c2ccccc2)cc1)Nc1cc2ccccc2cc1C(=O)NC1(C(=O)O)CCCCC1` [Example 513, 1-{[(3-{[(4-biphenylylamino)carbonyl]amino}-2-naphthalenyl)carbonyl]amino}cyclohexanecarboxylic acid] had a concentration for half-maximal inhibition (IC50) of 7430 nM. With `Cc1cc(C)c(NC(=O)Nc2cc3ccccc3cc2C(=O)N[C@@H](Cc2ccccc2)C(=O)O)c(C)c1` [Example 514, N-{[3-({[(2,4,6-trimethylphenyl)amino]carbonyl}amino)-2-naphthalenyl]carbonyl}-L-phenylalanine] the figure was 52 nM; with `Cc1cc(C)c(NC(=O)Nc2cc(F)ccc2C(=O)N[C@@H](CCNC(=O)OC(C)(C)C)C(=O)O)c(C)c1` [Example 515, (2S)-4-({[(1,1-dimethylethyl)oxy]carbonyl}amino)-2-({[4-fluoro-2-({[(2,4,6-trimethylphenyl)amino]carbonyl}amino)phenyl]carbonyl}amino)butanoic acid], 1900 nM. With `Cc1cc(C)c(NC(=O)Nc2cc3ccccc3cc2C(=O)N[C@@H](CCNC(=O)OC(C)(C)C)C(=O)O)c(C)c1` [Example 516, (2S)-4-({[(1,1-dimethylethyl)oxy]carbonyl}amino)-2-({[3-({[(2,4,6-trimethylphenyl)amino]carbonyl}amino)-2-naphthalenyl]carbonyl}amino)butanoic acid] the figure was 89 nM; with `Cc1cc(-c2ccccc2)cc(C)c1NC(=O)Nc1cc2ccccc2cc1C(=O)NC1(C(=O)O)CCCCCC1` [Example 518, 1-({[3-({[(3,5-dimethyl-4-biphenylyl)amino]carbonyl}amino)-2-naphthalenyl]carbonyl}amino)cycloheptanecarboxylic acid], 340 nM. Consider `Cc1cc(C)c(NC(=O)Nc2cc(-c3ccc(F)c(F)c3)ccc2C(=O)N[C@H](C(=O)O)[C@@H](C)OC2CCC2)c(C)c1` [Example 519, O-cyclobutyl-N-{[3′,4′-difluoro-3-({[(2,4,6-trimethylphenyl)amino]carbonyl}amino)-4-biphenylyl]carbonyl}-L-threonine], for which the IC50 was 7 nM. For the compound `Cc1cc(C)c(NC(=O)Nc2cc(F)ccc2C(=O)N[C@H](C(=O)O)[C@@H](C)OCc2ccccc2)c(C)c1` [Example 521, N-{[4-fluoro-2-({[(2,4,6-trimethylphenyl)amino]carbonyl}amino)phenyl]carbonyl}-O-(phenylmethyl)-L-threonine], the IC50 is 134 nM. Turning to `Cc1cc(C)c(NC(=O)Nc2cc(-c3ccc(F)c(F)c3)ccc2C(=O)N[C@@H](C(=O)O)[C@H](C)OC(C)(C)C)c(C)c1` [Example 522, N-{[3′,4′-difluoro-3-({[(2,4,6-trimethylphenyl)amino]carbonyl}amino)-4-biphenylyl]carbonyl}-O-(1,1-dimethylethyl)-D-threonine], the IC50 came to 675 nM. `COc1ccccc1-c1ccc(C(=O)N[C@H](C(=O)O)C2CCCCC2)c(NC(=O)Nc2c(C)cc(C)cc2C)c1` [Example 523, (2S)-cyclohexyl({[2′-(methyloxy)-3-({[(2,4,6-trimethylphenyl)amino]carbonyl}amino)-4-biphenylyl]carbonyl}amino)ethanoic acid] displayed an IC50 of 8 nM.
